Measured values as given in patent US11420958B2, “Aryl and heteroaryl substituted indole compounds” (BRISTOL-MYERS SQUIBB COMPANY, priority 2017, dated 2022).

What was measured:
Type in all cases: cell-based
human TLR9 = human TLR9 (Homo sapiens (Human), UniProt Q9NR96); assay: TLR9 inhibition reporter assay (HEK-Blue, SEAP); conditions: HEK-Blue cells overexpressing human TLR9, ODN2006 5 nM stimulation
Summary of the method: (§1)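 Percent inhibition of agonist-induced SEAP secretion was scored against DMSO-only and reference-inhibitor controls. Stimulation lasted 22 h at 37 °C following 30 min compound pre-exposure (0.05 nM–50 μM); ligands were gardiquimod 7.5 μM, R848 15.9 μM and ODN2006 5 nM for TLR7, 8 and 9.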

human TLR8 = human TLR8 (Homo sapiens (Human), UniProt Q9NR97); assay: TLR8 inhibition reporter assay (HEK-Blue, SEAP); conditions: HEK-Blue cells overexpressing human TLR8, R848 15.9 μM stimulation
Sequence of human TLR8 (Q9NR97 27-1041): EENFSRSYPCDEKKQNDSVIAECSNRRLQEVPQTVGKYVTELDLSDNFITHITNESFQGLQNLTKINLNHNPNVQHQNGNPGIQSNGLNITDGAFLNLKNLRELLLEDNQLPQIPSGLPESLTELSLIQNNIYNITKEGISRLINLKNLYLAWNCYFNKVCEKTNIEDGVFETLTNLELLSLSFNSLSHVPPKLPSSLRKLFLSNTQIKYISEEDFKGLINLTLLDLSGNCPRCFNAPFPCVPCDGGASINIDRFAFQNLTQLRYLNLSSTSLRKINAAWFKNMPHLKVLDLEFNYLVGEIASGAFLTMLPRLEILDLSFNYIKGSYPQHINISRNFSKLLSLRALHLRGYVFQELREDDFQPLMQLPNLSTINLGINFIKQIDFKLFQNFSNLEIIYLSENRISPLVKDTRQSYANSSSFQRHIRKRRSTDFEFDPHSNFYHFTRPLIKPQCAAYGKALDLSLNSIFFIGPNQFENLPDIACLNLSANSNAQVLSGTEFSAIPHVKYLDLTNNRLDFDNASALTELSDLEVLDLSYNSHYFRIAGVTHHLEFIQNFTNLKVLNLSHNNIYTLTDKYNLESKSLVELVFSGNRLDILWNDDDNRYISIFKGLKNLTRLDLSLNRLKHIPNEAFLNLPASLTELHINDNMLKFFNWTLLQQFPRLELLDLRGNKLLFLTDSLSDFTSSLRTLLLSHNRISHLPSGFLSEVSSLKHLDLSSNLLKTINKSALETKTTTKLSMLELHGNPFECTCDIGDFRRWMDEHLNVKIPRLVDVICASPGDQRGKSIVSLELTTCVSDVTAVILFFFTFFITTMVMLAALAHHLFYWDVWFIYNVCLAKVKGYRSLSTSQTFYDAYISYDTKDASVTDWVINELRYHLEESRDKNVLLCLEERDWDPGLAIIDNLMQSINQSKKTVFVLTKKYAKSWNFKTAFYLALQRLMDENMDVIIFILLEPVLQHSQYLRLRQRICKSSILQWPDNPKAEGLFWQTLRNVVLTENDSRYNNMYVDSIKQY
Summary of the method: as §1

human TLR7 = human TLR7 (Homo sapiens (Human), UniProt Q9NYK1); assay: TLR7 inhibition reporter assay (HEK-Blue, SEAP); conditions: HEK-Blue cells overexpressing human TLR7, gardiquimod 7.5 μM stimulation
Sequence of human TLR7 (Q9NYK1 27-1049): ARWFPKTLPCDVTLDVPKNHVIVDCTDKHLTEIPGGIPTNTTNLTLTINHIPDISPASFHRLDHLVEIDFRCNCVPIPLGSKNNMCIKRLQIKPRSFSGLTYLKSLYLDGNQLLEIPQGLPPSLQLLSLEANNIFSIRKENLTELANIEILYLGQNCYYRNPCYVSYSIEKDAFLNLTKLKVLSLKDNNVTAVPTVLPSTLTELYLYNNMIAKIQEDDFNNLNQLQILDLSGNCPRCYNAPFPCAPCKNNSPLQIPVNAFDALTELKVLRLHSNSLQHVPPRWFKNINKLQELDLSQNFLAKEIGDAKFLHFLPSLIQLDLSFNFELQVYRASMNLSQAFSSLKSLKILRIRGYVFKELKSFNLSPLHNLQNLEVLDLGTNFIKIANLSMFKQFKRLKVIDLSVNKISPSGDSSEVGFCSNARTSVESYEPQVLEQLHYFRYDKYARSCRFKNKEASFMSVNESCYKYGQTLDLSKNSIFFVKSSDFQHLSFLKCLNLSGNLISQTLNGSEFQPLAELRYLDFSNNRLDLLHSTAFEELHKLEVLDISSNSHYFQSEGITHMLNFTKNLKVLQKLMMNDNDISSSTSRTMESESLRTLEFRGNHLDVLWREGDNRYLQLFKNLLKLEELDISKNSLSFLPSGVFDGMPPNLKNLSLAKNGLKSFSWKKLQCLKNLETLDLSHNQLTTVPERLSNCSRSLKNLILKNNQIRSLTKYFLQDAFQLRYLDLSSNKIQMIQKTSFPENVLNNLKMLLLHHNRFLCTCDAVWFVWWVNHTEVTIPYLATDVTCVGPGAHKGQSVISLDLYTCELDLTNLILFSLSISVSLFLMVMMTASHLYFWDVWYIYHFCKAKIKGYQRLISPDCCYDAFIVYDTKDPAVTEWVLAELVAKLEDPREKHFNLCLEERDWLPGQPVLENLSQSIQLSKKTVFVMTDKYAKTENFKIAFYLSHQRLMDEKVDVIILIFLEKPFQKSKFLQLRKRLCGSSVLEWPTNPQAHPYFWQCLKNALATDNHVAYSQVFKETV
Summary of the method: as §1

Sequence of human TLR9 (Q9NR96 26-1032): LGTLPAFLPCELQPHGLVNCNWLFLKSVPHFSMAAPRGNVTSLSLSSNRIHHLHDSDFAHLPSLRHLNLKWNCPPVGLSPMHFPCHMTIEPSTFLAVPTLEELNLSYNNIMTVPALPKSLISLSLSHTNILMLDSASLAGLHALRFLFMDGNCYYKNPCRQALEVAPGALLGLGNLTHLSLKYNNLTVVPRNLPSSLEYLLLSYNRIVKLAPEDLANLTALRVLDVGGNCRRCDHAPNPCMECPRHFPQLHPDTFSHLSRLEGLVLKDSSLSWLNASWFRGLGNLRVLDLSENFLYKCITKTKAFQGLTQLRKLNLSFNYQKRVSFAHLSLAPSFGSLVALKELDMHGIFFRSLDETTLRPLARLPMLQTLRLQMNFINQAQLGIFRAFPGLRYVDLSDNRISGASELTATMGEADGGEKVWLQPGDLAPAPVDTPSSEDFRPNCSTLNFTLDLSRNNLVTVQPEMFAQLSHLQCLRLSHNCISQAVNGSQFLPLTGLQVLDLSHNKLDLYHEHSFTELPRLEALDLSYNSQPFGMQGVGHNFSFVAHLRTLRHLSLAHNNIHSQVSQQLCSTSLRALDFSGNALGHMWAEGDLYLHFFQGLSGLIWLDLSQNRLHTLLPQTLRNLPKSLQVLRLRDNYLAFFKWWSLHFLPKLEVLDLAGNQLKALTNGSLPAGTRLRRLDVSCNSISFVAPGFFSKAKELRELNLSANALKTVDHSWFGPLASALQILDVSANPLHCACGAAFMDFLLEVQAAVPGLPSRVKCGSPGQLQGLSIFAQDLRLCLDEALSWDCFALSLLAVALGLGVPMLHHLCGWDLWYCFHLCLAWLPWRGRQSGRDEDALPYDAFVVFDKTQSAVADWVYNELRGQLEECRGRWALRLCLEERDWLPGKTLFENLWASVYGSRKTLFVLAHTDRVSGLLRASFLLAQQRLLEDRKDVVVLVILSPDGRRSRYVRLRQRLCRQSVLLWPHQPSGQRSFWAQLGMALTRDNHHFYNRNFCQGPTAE

SMILES	IC50 (human TLR9) [nM]	IC50 (human TLR8) [nM]	IC50 (human TLR7) [nM]
Cc1cc(-c2[nH]c3ccc(-c4ccnc(N5CCNCC5)c4)cc3c2C(C)C)ccn1 [Example 273, 3-isopropyl-2-(2-methylpyridin-4-yl)-5-(2-(piperazin-1-yl)pyridin-4-yl)-1H-indole]	790	5.8	45
Cc1cc(-c2[nH]c3ccc(-c4nc(C(=O)NCCN5CCCCC5)co4)cc3c2C(C)C)cc(C)n1 [Example 274, 2-(2-(2,6-dimethylpyridin-4-yl)-3-isopropyl-1H-indol-5-yl)-N-(2-(piperidin-1-yl)ethyl)oxazole-4-carboxamide]	602	6.2	22
Cc1cc(-c2[nH]c3ccc(-c4nc(C(=O)NCCCN5CCCCC5)co4)cc3c2C(C)C)cc(C)n1 [Example 275, 2-(2-(2,6-dimethylpyridin-4-yl)-3-isopropyl-1H-indol-5-yl)-N-(3-(piperidin-1-yl)propyl)oxazole-4-carboxamide]	601	12	18
Cc1cc(-c2[nH]c3ccc(-c4nc(C(=O)NCC5CCNC5)co4)cc3c2C(C)C)cc(C)n1 (stereo not drawn) [Example 276, 2-(2-(2,6-dimethylpyridin-4-yl)-3-isopropyl-1H-indol-5-yl)-N-(pyrrolidin-3-ylmethyl)oxazole-4-carboxamide]	1080	26	49
Cc1cc(-c2[nH]c3ccc(-c4nc(C(=O)NCC(C)CN)co4)cc3c2C(C)C)cc(C)n1 (stereo not drawn) [Example 277, N-(3-amino-2-methylpropyl)-2-(2-(2,6-dimethylpyridin-4-yl)-3-isopropyl-1H-indol-5-yl)oxazole-4-carboxamide]	1080	13	21
Cc1cc(-c2[nH]c3ccc(-c4nc(C(=O)NCCN5CCOCC5)co4)cc3c2C(C)C)cc(C)n1 [Example 281, 2-(2-(2,6-dimethylpyridin-4-yl)-3-isopropyl-1H-indol-5-yl)-N-(2-morpholinoethyl)oxazole-4-carboxamide]	11200	8.7	34
Cc1cc(-c2[nH]c3ccc(-c4nc(C(=O)N[C@H]5CC[C@H](N)CC5)co4)cc3c2C(C)C)cc(C)n1 [Example 282]	2380	16	72
CCOC(=O)N1CCC(NC(=O)c2coc(-c3ccc4[nH]c(-c5cc(C)nc(C)c5)c(C(C)C)c4c3)n2)CC1 [Example 283, ethyl 4-(2-(2-(2,6-dimethylpyridin-4-yl)-3-isopropyl-1H-indol-5-yl)oxazole-4-carboxamido)piperidine-1-carboxylate]	2360	9.3	147
Cc1cc(-c2[nH]c3ccc(-c4nc(C(=O)NCCCN5CCCC5)co4)cc3c2C(C)C)cc(C)n1 [Example 284, 2-(2-(2,6-dimethylpyridin-4-yl)-3-isopropyl-1H-indol-5-yl)-N-(3-(pyrrolidin-1-yl)propyl)oxazole-4-carboxamide]	563	9.6	12
Cc1cc(-c2[nH]c3ccc(-c4nc(C(=O)NCC5CNC5)co4)cc3c2C(C)C)cc(C)n1 [Example 288, N-(azetidin-3-ylmethyl)-2-(2-(2,6-dimethylpyridin-4-yl)-3-isopropyl-1H-indol-5-yl)oxazole-4-carboxamide]	730	80	69
Cc1cc(-c2[nH]c3ccc(-c4nc(C(=O)NCC(C)(C)N5CCOCC5)co4)cc3c2C(C)C)cc(C)n1 [Example 289, 2-(2-(2,6-dimethylpyridin-4-yl)-3-isopropyl-1H-indol-5-yl)-N-(2-methyl-2-morpholinopropyl)oxazole-4-carboxamide]	2090	10	100
Cc1cc(-c2[nH]c3ccc(-c4nc(C(=O)NC5CCCNC5)co4)cc3c2C(C)C)cc(C)n1 (stereo not drawn) [Example 290, 2-(2-(2,6-dimethylpyridin-4-yl)-3-isopropyl-1H-indol-5-yl)-N-(piperidin-3-yl)oxazole-4-carboxamide]	3390	17	38
Cc1cc(-c2[nH]c3ccc(-c4nc(C(=O)NCCC5CCCN5)co4)cc3c2C(C)C)cc(C)n1 (stereo not drawn) [Example 291, 2-(2-(2,6-dimethylpyridin-4-yl)-3-isopropyl-1H-indol-5-yl)-N-(2-(pyrrolidin-2-yl)ethyl)oxazole-4-carboxamide]	494	23	67
Cc1cc(-c2[nH]c3ccc(-c4nnc(C5CCCN(C(C)C)C5)o4)cc3c2C(C)C)ccn1 (stereo not drawn) [Example 292, 2-(3-isopropyl-2-(2-methylpyridin-4-yl)-1H-indol-5-yl)-5-(1-isopropylpiperidin-3-yl)-1,3,4-oxadiazole]	551	2.5	44
CNc1ccc(-c2ccc3[nH]c(-c4ccnc(C)c4)c(C(C)C)c3c2)cn1 [Example 293, 5-(3-isopropyl-2-(2-methylpyridin-4-yl)-1H-indol-5-yl)-N-methylpyridin-2-amine]	39700	9.8	67
Cc1cc(-c2[nH]c3ccc(-c4ccc(NC(=O)C(F)(F)F)nc4)cc3c2C(C)C)ccn1 [Example 295, 2,2,2-trifluoro-N-(5-(3-isopropyl-2-(2-methylpyridin-4-yl)-1H-indol-5-yl)pyridin-2-yl)acetamide]	17900	2.7	11
Cc1cc(-c2[nH]c3ccc(-c4nnc(C5CN6CCC5CC6)o4)cc3c2C(C)C)cc(C)n1 (stereo not drawn) [Example 296, 2-(2-(2,6-dimethylpyridin-4-yl)-3-isopropyl-1H-indol-5-yl)-5-(quinuclidin-3-yl)-1,3,4-oxadiazole]	310	1.7	4.8
Cc1cc(-c2[nH]c3ccc(-c4nnc(C5CN6CCC5CC6)o4)cc3c2C(C)C)cc(C)n1 (stereo not drawn) [Example 297, 2-(2-(2,6-dimethylpyridin-4-yl)-3-isopropyl-1H-indol-5-yl)-5-(quinuclidin-3-yl)-1,3,4-oxadiazole]	111	3.1	6.2
Cc1cc(-c2[nH]c3ccc(-c4ccnc(N5CCN(C(C)C)CC5)c4)cc3c2C(C)C)ccn1 [Example 299, 3-isopropyl-5-(2-(4-isopropylpiperazin-1-yl)pyridin-4-yl)-2-(2-methylpyridin-4-yl)-1H-indole]	1480	11	119

More lines, in order of falling IC50 (human TLR9), values ahead:

IC50 (human TLR9) [nM]	IC50 (human TLR8) [nM]	IC50 (human TLR7) [nM]	SMILES
488	37	33	Cc1cc(-c2[nH]c3ccc(-c4nc(C(=O)NCCCN)co4)cc3c2C(C)C)cc(C)n1 [Example 278, N-(3-aminopropyl)-2-(2-(2,6-dimethylpyridin-4-yl)-3-isopropyl-1H-indol-5-yl)oxazole-4-carboxamide]
466	5.6	8.6	Cc1cc(-c2[nH]c3ccc(-c4nc(C(=O)NCCCCN5CCCC5)co4)cc3c2C(C)C)cc(C)n1 [Example 285, 2-(2-(2,6-dimethylpyridin-4-yl)-3-isopropyl-1H-indol-5-yl)-N-(4-(pyrrolidin-1-yl)butyl)oxazole-4-carboxamide]
437	2.7	25	Cc1cc(-c2[nH]c3ccc(-c4nnc(C5CCCN(C(C)C)C5)o4)cc3c2C(C)C)ccn1 (stereo not drawn) [Example 298, 2-(3-isopropyl-2-(2-methylpyridin-4-yl)-1H-indol-5-yl)-5-(1-isopropylpiperidin-3-yl)-1,3,4-oxadiazole]
399	6.6	17	Cc1cc(-c2[nH]c3ccc(-c4nc(C(=O)NCC5CCCCN5)co4)cc3c2C(C)C)cc(C)n1 (stereo not drawn) [Example 287, 2-(2-(2,6-dimethylpyridin-4-yl)-3-isopropyl-1H-indol-5-yl)-N-(piperidin-2-ylmethyl)oxazole-4-carboxamide]
380	9	24	Cc1cc(-c2[nH]c3ccc(-c4ccnc(C5CCN(C(C)C)CC5)c4)cc3c2C(C)C)ccn1 [Example 272, 3-isopropyl-5-(2-(1-isopropylpiperidin-4-yl)pyridin-4-yl)-2-(2-methylpyridin-4-yl)-1H-indole]
346	2	10	CCN(CCN(C)C)C(=O)c1nnc(-c2ccc3[nH]c(-c4cc(C)nc(C)c4)c(C(C)C)c3c2)o1 [Example 300, N-(2-(dimethylamino)ethyl)-5-(2-(2,6-dimethylpyridin-4-yl)-3-isopropyl-1H-indol-5-yl)-N-ethyl-1,3,4-oxadiazole-2-carboxamide]
202	1.9	12	Cc1cc(-c2[nH]c3ccc(-c4nc(C(=O)NCCCN5CCN(C)CC5)co4)cc3c2C(C)C)cc(C)n1 [Example 286, 2-(2-(2,6-dimethylpyridin-4-yl)-3-isopropyl-1H-indol-5-yl)-N-(3-(4-methylpiperazin-1-yl)propyl)oxazole-4-carboxamide]
156	1.8	3.8	Cc1cc(-c2[nH]c3ccc(-c4nc(C(=O)NCCCN(C)C)co4)cc3c2C(C)C)cc(C)n1 [Example 280, N-(3-(dimethylamino)propyl)-2-(2-(2,6-dimethylpyridin-4-yl)-3-isopropyl-1H-indol-5-yl)oxazole-4-carboxamide]
128	8.8	14	CNCCCNC(=O)c1coc(-c2ccc3[nH]c(-c4cc(C)nc(C)c4)c(C(C)C)c3c2)n1 [Example 279, 2-(2-(2,6-dimethylpyridin-4-yl)-3-isopropyl-1H-indol-5-yl)-N-(3-(methylamino)propyl)oxazole-4-carboxamide]
